Entries after “also recorded” stand apart in the source; their conditions may differ.
Legend:
[1] = Qualitative detection of prototype flavones and metabolites in rat plasma, prostate, urine and feces by UPLC-Q-Exactive Orbitrap-MS after oral aerial part of G. uralensis; conditions: rats, single oral 1 g/kg extract; for Distribution of protoflavones: Plasma: mixed plasma 0.25-48 h, + not defined
Procedure: Forty-eight rats were randomly divided into four groups, namely plasma (n = 6), prostate (n = 30, there were five time points, with six individuals for each time point), excretion (n = 6) and blank (n = 6). The plasma, prostate, and excretion groups were gavaged with 1 g/kg of Glycyrrhiza uralensis sample, whereas the blank group was administered 0.5% CMC-Na. Biological samples were collected after the mice were dosed once.
The tube was placed at room temperature for 1 h; then, it was centrifuged at 4 °C (10,000 rpm, 10 min). Upper plasma of different time points was separated for 50 μL and mixed and shaken well. Mixed plasma was collected at 50 μL and the plasma samples (50 μL) were vortex-mixed with 250 μL of methanol. The solution was centrifuged at 10,000 rpm for 10 min to separate the protein from the organic phase, and then the upper supernatant was collected. Then, the supernatant was transferred and evaporated to dryness under a gentle stream of nitrogen at room temperature. The residue was reconstituted in 50 µL methanol, mixed for 1 min, and centrifuged at 10,000 rpm for 10 min. At last, 20 μL of the resulting supernatant was applied to UPLC–MS/MS analysis.
UPLC-Q-Exactive Orbitrap-MS analysis was performed on a Dionex Ultimate 3000 ultra-high performance liquid system (ThermoFisher) consisting of a binary pump, a DAD detector, a column chamber, an automatic sampler and an online degasser. The sample was separated on a Waters ACQUITY UPLC HSS T3 C18 column (2.1 mm × 100 mm, 1.8 μm), with a column temperature of 30 °C, automatic sampler temperature of 10 °C, and flow rate of 0.2 mL·min^−1. The mobile phases A and B were acetonitrile with 0.1% formic acid and aqueous solution with 0.1% formic acid, respectively. […] The injection volume of the sample was 5 μL.
The MS conditions were as follows: detection mode: positive and negative ion modes; scan range: 100–1200; resolution: 70,000; sheath gas flow rate: 40; aux gas flow rate: 15; spray voltage [kV]: 3.20; capillary temp: 320 °C; aux gas heater temp: 350 °C; AGC target: 3,000,000; maximum IT (ms): 100; sheath gas: 40/45; aux gas flow: 11/10; sweep gas: 0; S-lens RF level: 55; and aux gas heater temperature: 220 °C.

[2] = Stability test of analytes in rat prostate homogenate QC samples; format: in vitro ADME; conditions: for Stability, Mean ± S.D., 24 h at room temperature, low QC / Stability, Mean ± S.D., freeze-thaw cycles, low QC: nominal puerarin 0.100, luteolin 0.200, kaempferol 2.000, pinocembrin 2.000, n = 3; for Stability, Mean ± S.D., 24 h at room temperature, medium QC / Stability, Mean ± S.D., freeze-thaw cycles, medium QC: nominal puerarin 1.000, luteolin 5.000, kaempferol 100.000, pinocembrin 50.000, n = 3; for Stability, Mean ± S.D., 24 h at room temperature, high QC / Stability, Mean ± S.D., freeze-thaw cycles, high QC: nominal puerarin 5.000, luteolin 10.000, kaempferol 200.000, pinocembrin 100.000, n = 3; for Stability, Mean ± S.D., freeze-thaw cycles, low QC / Stability, Mean ± S.D., freeze-thaw cycles, medium QC / Stability, Mean ± S.D., freeze-thaw cycles, high QC: three freeze-thaw cycles
Procedure: All of the solutions were stored at 4℃ until analysis. Stability investigation of the four components in the plasma and prostate homogenates was performed by analyzing replicates (n = 3) of the three levels of QC samples under three different conditions. Room temperature stability was assessed after the exposure of untreated QC samples at room temperature for 24 h. Freeze and thaw stability was evaluated after three freeze (−20 °C)–thaw (room temperature) cycles.

[3] = Prostate distribution of four flavonoids after oral aerial part of G. uralensis (HPLC-MS/MS); format: in vivo, Sprague Dawley (SD) rats; conditions: rats, 0.5-8 h after oral extract 1 g/kg on day 31, n = 6
Procedure: (§1) The analysis was performed on the AB SCIEX QTRAP 5500 (USA) triple quadrupole mass spectrometer, which was performed in SRM and positive and negative ionization modes. LC separation is run on XSelect HSS T3 analytical column (2.1 × 100 mm, 2.5 μm, Waters), equipped with Exion LC AD system (AB Sciex) infinite binary pump. Acetonitrile was used as solvent A and 0.1% formic acid aqueous solution was used as solvent B and the flow rate was 0.1 mL/min. Using gradient elution, the initial condition is that 90% solvent B drops to 0% B within 17 min and maintains it for 2 min, returns to the initial […] at 19.1 min, and ends an analysis at 22 min. The temperature of the column oven is maintained at 35 °C. The sample is kept at 10 °C and the injection volume is 5 μL. The MS parameters are as follows: ESI ion source temperature is 500 °C; curtain gas: 30 psi; collision-activated dissociation (CAD) gas settings: medium, ion spray voltage: −4500 V, ion gas 1 and 2: 50 psi. The data acquisition software is AB SCIEX Analyst 1.7.1. The specific parameters are as Table 8.

[4] = Pharmacokinetics of four flavonoids in rat plasma after oral aerial part of G. uralensis extract (HPLC-MS/MS); format: in vivo, Sprague Dawley (SD) rats; conditions: for AUC(0-inf) / AUC(0-t) / Cmax / Tmax / half-life / MRT last / MRT inf: Sprague Dawley; for MRT last: day 31, n = 6, read-out: MRT0–t; for MRT inf: day 31, n = 6, read-out: MRT0–∞; for time at which steady state was reached: 3 h after daily oral extract 1 g/kg
Procedure: For clean-up, the plasma samples (50 μL) were vortex-mixed with 10 μL of IS and 250 μL of methanol. […] At last, 5 μL of the resulting supernatant was applied to HPLC–MS/MS analysis.
as §1

primary liver cell model = tested on: primary liver cell model; set-up: method as in Lu et al. [65]; conditions: ref Lu et al. [65]; cited from earlier work
[5] = oral extract 1 g/kg every day, day 31, n = 6

Row | Compound | Distribution of protoflavones: Plasma [1] | Stability, Mean ± S.D., 24 h at room temperature, low QC [2] | Stability, Mean ± S.D., 24 h at room temperature, medium QC [2] | Stability, Mean ± S.D., 24 h at room temperature, high QC [2] | Stability, Mean ± S.D., freeze-thaw cycles, low QC [2] | Stability, Mean ± S.D., freeze-thaw cycles, medium QC [2] | Stability, Mean ± S.D., freeze-thaw cycles, high QC [2] | concentration in prostate (ranking, in words) [3] | AUC(0-inf) [4, 5] | AUC(0-t) [4, 5] | Cmax [4, 5] | Tmax [4, 5] | half-life [4, 5] | MRT last ([4]; oral extract 1 g/kg every day) | MRT inf ([4]; oral extract 1 g/kg every day) | also measured
1 | O=c1c(O[C@@H]2O[C@H](CO)[C@@H](O)[C@H](O)[C@H]2O)c(-c2ccc(O)cc2)oc2cc(O)cc(O)c12 [Astragalin] | detected |  |  |  |  |  |  |  |  |  |  |  |  |  |  | 
2 | O=c1c(O[C@@H]2O[C@H](CO)[C@H](O)[C@H](O)[C@H]2O)c(-c2ccc(O)c(O)c2)oc2cc(O)cc(O)c12 [Hyperoside] | detected |  |  |  |  |  |  |  |  |  |  |  |  |  |  | 
3 | O=c1c(O[C@@H]2O[C@H](CO)[C@@H](O)[C@H](O)[C@H]2O)c(-c2ccc(O)c(O)c2)oc2cc(O)cc(O)c12 [Isoquercitrin] | detected |  |  |  |  |  |  |  |  |  |  |  |  |  |  | 
4 | O=c1c(O)c(-c2ccc(O)cc2)oc2cc(O)cc(O)c12 [Kaempferol] |  | 2.000 ± 0.265 μg·mL^−1/μg·g^−1 | 99.133 ± 3.557 μg·mL^−1/μg·g^−1 | 201.667 ± 3.215 μg·mL^−1/μg·g^−1 | 1.833 ± 0.058 μg·mL^−1/μg·g^−1 | 96.667 ± 2.082 μg·mL^−1/μg·g^−1 | 202.333 ± 2.082 μg·mL^−1/μg·g^−1 | highest concentration; also recorded: kaempferol > pinocembrin > luteolin > puerarin; also recorded: particularly high | 23.8 ± 0.86 ng·h/mL | 18.8 ± 1.18 ng·h/mL | 1.27 ± 0.06 ng/mL | 4 ± 0.17 h | 19 ± 1.46 h | 20.1 ± 0.84 h | 31.8 ± 1.22 h | 
5 | O=c1cc(-c2ccc(O)c(O)c2)oc2cc(O)cc(O)c12 [Luteolin] |  | 0.194 ± 0.005 μg·mL^−1/μg·g^−1 | 4.963 ± 0.118 μg·mL^−1/μg·g^−1 | 9.900 ± 0.458 μg·mL^−1/μg·g^−1 | 0.213 ± 0.031 μg·mL^−1/μg·g^−1 | 4.833 ± 0.058 μg·mL^−1/μg·g^−1 | 10.433 ± 0.551 μg·mL^−1/μg·g^−1 | kaempferol > pinocembrin > luteolin > puerarin | 51.6 ± 1.98 ng·h/mL |  |  | 0.87 ± 0.05 h | 31.1 ± 1.17 h | 20.7 ± 1.91 h | 44 ± 1.72 h | Phase II metabolites, share of the dosage (primary liver cell model): 54%; time at which steady state was reached [4]: 9 days; AUC0–t [4, 5]: 35.01 ± 0.81 ng·h/mL
6 | COc1ccc(-c2coc3cc(O[C@@H]4O[C@H](CO)[C@@H](O)[C@H](O)[C@H]4O)ccc3c2=O)cc1 [Ononin] | detected |  |  |  |  |  |  |  |  |  |  |  |  |  |  | 
7 | O=C1C[C@@H](c2ccccc2)Oc2cc(O)cc(O)c21 [Pinocembrin] |  | 1.923 ± 0.076 μg·mL^−1/μg·g^−1 | 51.000 ± 3.000 μg·mL^−1/μg·g^−1 | 102.000 ± 2.646 μg·mL^−1/μg·g^−1 | 1.867 ± 0.153 μg·mL^−1/μg·g^−1 | 51.333 ± 1.528 μg·mL^−1/μg·g^−1 | 102.333 ± 2.887 μg·mL^−1/μg·g^−1 | kaempferol > pinocembrin > luteolin > puerarin | 23.8 ± 1.29 ng·h/mL | 21.8 ± 0.73 ng·h/mL | 1.18 ± 0.06 ng/mL | 1.5 ± 0.05 h | 13.2 ± 0.72 h | 19.1 ± 0.82 h | 23.3 ± 0.83 h | time at which steady state was reached [4]: 5 days
8 | O=c1c(-c2ccc(O)cc2)coc2c([C@@H]3O[C@H](CO)[C@@H](O)[C@H](O)[C@H]3O)c(O)ccc12 [Puerarin] | detected |  | 1.097 ± 0.138 μg·mL^−1/μg·g^−1 | 4.940 ± 0.056 μg·mL^−1/μg·g^−1 | 0.100 ± 0.005 μg·mL^−1/μg·g^−1 |  | 5.057 ± 0.224 μg·mL^−1/μg·g^−1 | kaempferol > pinocembrin > luteolin > puerarin | 242 ± 2.45 ng·h/mL | 238 ± 23.4 ng·h/mL | 23.8 ± 1.05 ng/mL | 0.5 ± 0.04 h |  | 14.4 ± 1.21 h | 15.1 ± 1.71 h | Distribution of four representative flavonoids and metabolites: Plasma ([1]; + not defined (detected)): detected; t1/2 [4, 5]: 6.43 ± 0.20 h
9 | C[C@@H]1O[C@@H](OC[C@H]2O[C@@H](Oc3c(-c4ccc(O)c(O)c4)oc4cc(O)cc(O)c4c3=O)[C@H](O)[C@@H](O)[C@@H]2O)[C@H](O)[C@H](O)[C@H]1O [Rutin] | detected |  |  |  |  |  |  |  |  |  |  |  |  |  |  | 
10 | O=c1cc(-c2ccc(O)cc2)oc2c([C@@H]3O[C@H](CO)[C@@H](O)[C@H](O)[C@H]3O)c(O)cc(O)c12 [Vitexin] | detected |  |  |  |  |  |  |  |  |  |  |  |  |  |  | 

— publication PMC9144537, “Pharmacokinetics, Prostate Distribution and Metabolic Characteristics of Four Representative Flavones after Oral Administration of the Aerial Part of Glycyrrhiza uralensis in Rats” (Molecules, 2022)
